From ChEMBL document CHEMBL2163300, “Mitogen-activated protein kinase-activated protein kinase 2 (MAPKAP-K2) as an antiinflammatory target: discovery and in vivo activity of selective pyrazolo[1,5-a]pyrimidine inhibitors using a focused library and structure-based optimization approach” (J Med Chem, 2012) come the findings set out here.

Each structure is given as a SMILES string. Active and inactive are the calls of the source. The rule behind the calls is not given here.

Data set [1] concerns the target T1, MAP kinase-activated protein kinase 2 (Homo sapiens, UniProt P49137). Description: Inhibition of MAPKAP-K2 using KKLNRTLSVA as substrate and [33P]-gamma-ATP after 30 mins by liquid scintillation counter.
Data set [2] addresses Cyclin-dependent kinase 2 (Homo sapiens, UniProt P24941).
Description: Inhibition of CDK2 after 60 mins using [33P]-gamma-ATP by liquid scintillation counter
The target of data set [3] is Serine/threonine-protein kinase Chk2 (Homo sapiens) (UniProt O96017). Description: Inhibition of human CHK2 at 30 uM by Cyclex assay.
Chain of Serine/threonine-protein kinase Chk2 (Homo sapiens) (O96017 whole entry): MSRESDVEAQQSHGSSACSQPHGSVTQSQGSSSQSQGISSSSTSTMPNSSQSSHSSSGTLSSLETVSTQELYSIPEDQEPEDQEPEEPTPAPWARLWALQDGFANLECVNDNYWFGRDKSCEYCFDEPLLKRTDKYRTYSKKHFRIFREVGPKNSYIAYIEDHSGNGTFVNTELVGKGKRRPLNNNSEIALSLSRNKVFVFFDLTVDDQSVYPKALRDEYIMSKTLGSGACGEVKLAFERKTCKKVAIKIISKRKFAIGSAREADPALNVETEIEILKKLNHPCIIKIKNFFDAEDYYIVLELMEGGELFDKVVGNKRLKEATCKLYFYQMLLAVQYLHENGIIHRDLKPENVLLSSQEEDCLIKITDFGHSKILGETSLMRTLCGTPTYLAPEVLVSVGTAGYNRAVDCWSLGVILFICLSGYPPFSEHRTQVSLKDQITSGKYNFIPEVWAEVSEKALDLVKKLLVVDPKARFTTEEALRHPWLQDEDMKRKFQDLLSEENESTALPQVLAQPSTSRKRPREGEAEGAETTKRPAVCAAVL
Data set [4] can be described thus: AUC (0 to 24 hrs) in mouse at 1 mg/kg, po. Details: time < 24 hr, dose 1 mg/kg, route oral. As to conditions: plasma. Format: ADME, organism-based.
For data set [5], the target named is T1, MAP kinase-activated protein kinase 2. Description: Inhibition of human MAPKAP-K2 in THP1 cells assessed as inhibition of LPS-induced TNFalpha production incubated 1 hr prior to LPS challenge measured 18 hrs post LPS challenge by HTRF assay. Format: cell-based, THP-1.
Data set [6] in a line: Oral bioavailability in mouse at 1 mg/kg. Format: ADME, organism-based. As to conditions: in vivo.
The nature of data set [7]: Half life in mouse at 1 mg/kg, iv. Format: ADME, organism-based. Details: dose 1 mg/kg, route intravenous. Particulars: in vivo.
The next data set has as its system THP-1. Description: Cytotoxicity against human THP1 cells assessed as cell viability by MTS assay. Format: cell-based. (Formazan colour is commonly taken as a measure of viable cells.)
Data set [8] can be described thus: Total clearance in mouse at 1 mg/kg, iv. Format: ADME, organism-based. Details: dose 1 mg/kg, route intravenous. As to conditions: in vivo.
Data set [9] deals with T1, MAP kinase-activated protein kinase 2. Description: Binding affinity to recombinant MAPKAP-K2 using KKKALSRQLSVAA as substrate after 4 mins by […].
The next data set relates to Mus musculus. Description: Antiinflammatory activity in po dosed C57BL/6 mouse assessed as decrease in LPS-induced serum TNFalpha level administered 30 mins prior to LPS challenge measured 60 mins post LPS challenge by ELISA. Format: functional, organism-based. A general note: In an ELISA, binding on a coated surface is turned into a signal by an enzyme label.
Data set [10] deals with T1, MAP kinase-activated protein kinase 2. Briefly: Inhibition of MAPKAP-K2.

T1 sequence (P49137 whole entry): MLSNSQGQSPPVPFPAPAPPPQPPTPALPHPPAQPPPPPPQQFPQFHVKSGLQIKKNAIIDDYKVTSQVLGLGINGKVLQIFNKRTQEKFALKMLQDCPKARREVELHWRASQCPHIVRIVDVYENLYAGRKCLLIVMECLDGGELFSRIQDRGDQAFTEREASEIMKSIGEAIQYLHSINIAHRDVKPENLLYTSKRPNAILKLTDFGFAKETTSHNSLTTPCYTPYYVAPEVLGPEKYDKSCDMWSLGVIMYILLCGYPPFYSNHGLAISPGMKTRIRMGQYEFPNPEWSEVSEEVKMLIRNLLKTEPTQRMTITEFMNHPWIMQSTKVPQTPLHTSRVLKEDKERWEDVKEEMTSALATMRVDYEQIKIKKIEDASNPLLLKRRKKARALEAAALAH

In turn, `CCOc1ccc(Nc2c(C)c(NCCO)nc3ccnn23)cc1` returned an IC50 in [1] of 83 µM.

As to `Cc1c(N[C@H]2CCCNC2)nc2ccnn2c1Nc1ccc(OCCN2CCOCC2)cc1`, the IC50 in data set [2] worked out at 62 µM; in data set [1], 0.16 µM. As to `CCOC(=O)c1ccc(Nc2c(C)c(N[C@H]3CC[C@H](N)CC3)nc3ccnn23)cc1`, in [1], the IC50 turned out to be 0.7 µM.

Turning to `N[C@H]1CC[C@H](Nc2cc(Nc3ccccc3Cl)n3nccc3n2)CC1`, the IC50 in [2] stood at 0.39 µM; in [1], 0.2 µM. Further, the inhibition result in data set [3] is “inactive”. Regarding `Cc1nc2ccc(Nc3c(C)c(N[C@H]4CCCNC4)nc4ccnn34)cc2s1`, the AUC(0-t) at 24 h in [4] stood at 0.579 µM·h. Moreover, the IC50 in data set [2] worked out at 25 µM; in data set [1] it was 0.054 µM; in data set [5], 8.4 µM; in the data set on THP-1 it was 54 µM. The same compound gave a bioavailability in [6] of 79%. The compound also had a half-life in [7] of 2.6 h. Further, the clearance in [8] was 58.3 mL/min/kg. For the compound `Cc1c(N[C@H]2CCCNC2)nc2ccnn2c1Nc1ccc2c(cnn2C)c1`, the figures for the IC50 in data set [2] and in [1] were 27 µM and 0.076 µM, respectively. As for `Cc1c(N[C@H]2CC[C@H](N)CC2)nc2ccnn2c1Nc1ccc(OCc2ccccc2)cc1`, in data set [1], the IC50 amounted to 0.7 µM. With `CCc1c(N[C@H]2CC[C@H](N)CC2)nc2ccnn2c1Nc1ccccc1Cl`, the IC50 in [2] is above 300 µM; in [1], 1.5 µM. `CN(c1ccc(F)c(Cl)c1)c1cc(N[C@H]2CC[C@H](N)CC2)nc2ccnn12` showed an IC50 in data set [1] above 300 µM. Consider `CCc1c(N[C@H]2CC[C@H](N)CC2)nc2ccnn2c1Nc1ccc(F)c(Cl)c1`, for which the IC50 was determined as 3.6 µM in data set [2] and 0.4 µM in data set [1]. Further, the inhibition entry in data set [3] was “inactive”. In the case of `Fc1ccc(Nc2cc(NC3CCNCC3)nc3ccnn23)cc1Cl`, the midpoint of inhibition in data set [1], the IC50, lay at 25 µM.

Take `CC(=O)c1ccc(-c2ccc(Nc3c(C)c(N[C@H]4CCCNC4)nc4ccnn34)cc2)s1`: the IC50 stood at 21 µM in [2] and 0.057 µM in data set [1]. `CCN[C@H]1CC[C@H](Nc2cc(Nc3ccc(F)c(Cl)c3)n3nccc3n2)CC1`: half-maximal inhibition in data set [1] (IC50) was put at 2 µM.

With `N[C@H]1CC[C@H](Nc2cc(Nc3ccc(F)c(Cl)c3)n3ncc(Br)c3n2)CC1`, the 50% inhibitory concentration (IC50) came to 0.0034 µM in data set [2] and 9.2 µM in data set [1]. In [1], `CCOc1ccc(Nc2c(C)c(N[C@H]3CCCNC3=O)nc3ccnn23)cc1` showed an IC50 above 100 µM. Take `Cc1c(N[C@H]2CCCNC2)nc2ccnn2c1Nc1ccc(C(=O)NC2CCCC2)cc1`: the IC50 in [2] came out at 49 µM; in data set [1], 0.14 µM. On to `Cc1ccc(-c2ccc3c(ccc4sc5c(c43)NC[C@@H](C)NC5=O)n2)cn1`, for which, in data set [9], the IC50 turned out to be 0.005 µM. Turning to `CCOc1ccc(Nc2c(C)c(NCCN)nc3ccnn23)cc1`, the midpoint of inhibition in [1], the IC50, lay at 2.5 µM. As for `CCCc1c(N[C@H]2CC[C@H](N)CC2)nc2ccnn2c1Nc1ccc(F)c(Cl)c1`, the values for the IC50 in data set [2] and in data set [1] were 2.1 µM and 0.6 µM, respectively.

Consider `N[C@H]1CC[C@H](Nc2cc(Nc3ccc(F)c(Cl)c3)n3ncc(Cl)c3n2)CC1`, for which the 50% inhibitory concentration (IC50) in data set [2] was 0.003 µM; in data set [1], 8.1 µM. Consider `Cc1c(N[C@H]2CC[C@H](N)CC2)nc2ccnn2c1Nc1cccc(OCc2ccccc2)c1`, for which half-maximal inhibition in data set [1] (IC50) required 3 µM. As to `N[C@H]1CC[C@H](Nc2cc(NCC3CCCCC3)n3nccc3n2)CC1`, the half-inhibitory concentration (IC50) in [1] was found to be 11 µM.

For `Cc1ccc(-n2nc(C(C)(C)C)cc2NC(=O)Nc2ccc(OCCN3CCOCC3)c3ccccc23)cc1`, the Activity result in the data set on Mus musculus was “Dose-dependent effect”. Take `COCCOc1ccc(Nc2c(C)c(N[C@H]3CCCNC3)nc3ccnn23)cc1`: the AUC(0-t) at 24 h in data set [4] was 0.316 µM·h. The IC50 was 22 µM in [2], 0.13 µM in data set [1], 7.6 µM in data set [5] and above 100 µM in the data set with THP-1. Also, the bioavailability in data set [6] is 80%. In addition, in data set [7], the half-life was 1 h. For the same compound, in [8], the clearance was 58.3 mL/min/kg. As to `Cc1c(NC2CCCNC2)nc2ccnn2c1Nc1ccc(F)c(Cl)c1` (racemic), the IC50 in data set [2] worked out at 33 µM; in data set [1] it was 0.51 µM. As to `CC(C)CCNc1cc(N[C@H]2CC[C@H](N)CC2)nc2ccnn12`, the midpoint of inhibition in data set [1], the IC50, lay at 12 µM. On to `CCc1c(NC2CCCNC2)nc2ccnn2c1Nc1ccc(F)c(Cl)c1` (racemic), for which the IC50 turned out to be 24 µM in [2] and 0.7 µM in data set [1]. Compound `N[C@H]1CC[C@H](Nc2cc(NCc3ccccc3)n3nccc3n2)CC1` came in with an IC50 in data set [1] of 7 µM. The same measure, in the same setting: to `CC(C)(C)c1cc2nc(N[C@H]3CC[C@H](N)CC3)cc(Nc3ccc(F)c(Cl)c3)n2n1` belongs above 300 µM. As for `CCOc1cccc(Nc2c(C)c(N[C@H]3CC[C@H](N)CC3)nc3ccnn23)c1`, in data set [1], half-maximal inhibition (IC50) required 1.4 µM.

For the compound `CCOc1ccc(Nc2c(C)c(NCCCN)nc3ccnn23)cc1`, the IC50 in data set [1] was 8.7 µM. Compound `CCOc1ccc(Nc2c(C)c(O[C@H]3CC[C@H](N)CC3)nc3ccnn23)cc1` had an IC50 in data set [1] of 0.57 µM. In the case of `Cc1c(N[C@H]2CC[C@H](N)CC2)nc2ccnn2c1Nc1ccc(F)c(Cl)c1`, the values for the IC50 in [2] and in data set [1] were 11 µM and 0.4 µM, respectively. Consider `CCOc1ccc(Nc2c(C)c(NCCCCN)nc3ccnn23)cc1`, for which, in data set [1], the IC50 stood at 4.1 µM. For the compound `CCOc1ccc(Nc2c(C)c(N(C)C3CCCNC3)nc3ccnn23)cc1` (racemic), the IC50 in data set [1] came to 26 µM. The compound `Fc1ccc(Nc2cc(NCC3CCNCC3)nc3ccnn23)cc1Cl` displayed an IC50 in data set [1] above 100 µM. Regarding `N[C@H]1CC[C@H](Nc2nc3ccnn3c(Nc3ccc(F)c(Cl)c3)c2-c2ccccc2)CC1`, the IC50 in [2] was 6 µM; in [1], 1.6 µM. With `CCOc1ccc(Nc2c(C)c(N[C@H]3CC[C@H](N)CC3)nc3ccnn23)cc1`, in data set [1], inhibition was half-maximal at 0.36 µM (IC50). Also, in [3], the inhibition result was “inactive”. Compound `CC(=O)N[C@H]1CC[C@H](Nc2cc(Nc3ccc(F)c(Cl)c3)n3nccc3n2)CC1` displayed an IC50 in [1] above 100 µM.

In the case of `NC1CCCC(Nc2cc(Nc3ccc(F)c(Cl)c3)n3nccc3n2)C1` (centres undefined), the IC50 in data set [1] was above 100 µM. In turn, `CCOc1ccc(Nc2c(C)c(N[C@H]3CC[C@H](O)CC3)nc3ccnn23)cc1` had an IC50 in [1] of 89 µM. Consider `N#Cc1c(N)nc2c(c1N)Cc1cc(O)c(O)cc1O2`, for which the IC50 in data set [10] stood at 0.13 µM.

As to `N#Cc1cnn2c(Nc3ccc(F)c(Cl)c3)cc(N[C@H]3CC[C@H](N)CC3)nc12`, the results for the IC50 in [2] and in [1] were 0.004 µM and 3.1 µM, respectively.

Take `Cc1cc2nc(N[C@H]3CC[C@H](N)CC3)cc(Nc3ccc(F)c(Cl)c3)n2n1`: the IC50 in data set [1] was above 300 µM.

Consider `Fc1ccc(Nc2cc(NC3CCCCC3)nc3ccnn23)cc1Cl`, for which the IC50 in data set [1] was above 100 µM. In the case of `Cc1c(N[C@H]2CC[C@H](N)CC2)nc2ccnn2c1Nc1ccccc1Cl`, the IC50 in [2] is 6.4 µM; in data set [1], 1.7 µM. As for `Fc1ccc(Nc2cc(NC3CCCNC3)nc3ccnn23)cc1Cl` (racemic), the values for the IC50 in [2] and in [1] were 0.7 µM and 0.4 µM, respectively.

In data set [1], `CCOC(=O)c1cccc(Nc2c(C)c(N[C@H]3CC[C@H](N)CC3)nc3ccnn23)c1` yielded an IC50 of 1.9 µM.

With `CCN(CC)[C@H]1CC[C@H](Nc2cc(Nc3ccc(F)c(Cl)c3)n3nccc3n2)CC1`, in data set [1], the IC50 is above 100 µM. With `Nc1ccc(Nc2cc(Nc3ccc(F)c(Cl)c3)n3nccc3n2)cc1`, the IC50 in data set [1] is above 100 µM.

As a reminder, the IC50 is the concentration at which inhibition is half-maximal. The term AUC(0-t) denotes exposure summed from dosing to a finite time, without extrapolation to infinity. High values mean more exposure, low ones less exposure. The bioavailability is dose-corrected exposure relative to a reference, in per cent. One may read the half-life as how long it takes for the measured level to halve. A higher half-life goes with slow loss. For orientation: clearance means the rate of elimination divided by the concentration. Higher therefore signals a high capacity for elimination.
